# Article PMC7849180 (Frontiers in Pharmacology, 2020)
# Tests used:
# JAK2 signaling pathway = assay: JAK2 signaling in NSG mice injected with HCD-57-JAK2V617F cells; format: in vivo; conditions: single 200 mg/kg intraperitoneally, 4 h
# Method: (§1) Suzhou Zelgen Biopharmaceuticals Co., Ltd. Jaktinib Hydrochloride Tablets Chemical Drug Class 1 New Drug […]
# (§2) cells at a concentration of 1 μM. […]
# (§3) effectively affect the primary cells harboring the JAK2V617F mutation in patients with […]
# (§4) In Vivo Pharmacodynamic Study of ZG0128 in Mouse Model of Myeloproliferative Neoplasm
# (§5) Primary myelofibrosis (PMF) is characterized by the formation of bone marrow fibrous tissues (scar-like) caused by the abnormal proliferation of three types of cells (platelets, white blood cells, and red blood cells). At present, there is still no particularly effective treatment for these diseases. JAKV617F transgenic mice and JAK2V617F bone marrow transplanted mice can develop the pathological characteristics of myeloproliferative neoplasm, which can be used to effectively evaluate the efficacy of drugs used in the treatment of myeloproliferative neoplasms.
# (§6) HCD-57-JAK2V617F cells were intravenously injected into NSG mice. Three weeks later, the mice were injected intraperitoneally with a single dose of 200 mg/kg of compound ZG0128, and euthanized 4 h after drug administration. The results of […]
# nucleated cells in spleen were HCD-57-JAK2V617F transplanted cells. Western blot […]
# the phosphorylation of downstream major signaling proteins of JAK2, i.e., ERK1/2, […]
# inhibit the JAK2 signaling pathway in vivo. […]
# [1] = tested on: myeloproliferative neoplasm; assay: JAK2V617F transgenic mouse model; format: in vivo, JAK2V617F transgenic mice; conditions: 100 mg/kg daily oral gavage, 4 weeks
# Method: as §1, §2, §3, §4, §5, §6
# The ability of compound ZG0128 and its positive control drug ZG0192 to inhibit the pathological characteristics of myeloproliferative tumors (MPNs) was evaluated in a JAK2V617F bone marrow transplanted mouse model. […]
# [2] = Food effect on plasma pharmacokinetics, 200 mg crossover; format: in vivo, human; conditions: for AUC0-t, geometric mean / AUC0-∞, geometric mean / Cmax, geometric mean / median Tmax: 200 mg
# Method: For MAD cohorts, blood samples were collected at 0, 0.25, 0.5, 1, 1.5, 2, 3, 4, 5, 6, 8 and 12 h on day 1; 0 h on day 2, 3, 4, 6 and 7; 0, 0.25, 0.5, 1, 1.5, 2, 3, 4, 5, 6, 8, 12, 24, 36 and 48 h on day 10. In food effect cohort, blood samples were collected at 0, 0.25, 0.5, 1, 1.5, 2, 3, 4, 5, 6, 8, 12, 24, 36, 48, 72, 96 and 120 h in period one of group A; 0, 0.25, 0.5, 1, 1.5, 2, 3, 4, 5, 6, 8, 12, 24, 36 and 48 h in period two of group A and the two periods of group B. Blood samples were centrifuged at 3,000 rpm for 10 min at 2–8 °C and stored at -80 °C until liquid chromatography-mass spectrophotometry (LC-MS/MS) analysis. Urine and feces samples were collected in period one of group A of food effect cohort with the intervals 0, 0–6, 6–12, 12–24, 24–48, 48–72, 72–96, 96–120 and 0–120 h, respectively. […]
# Statistical analysis was performed using SAS software, version 9.4 (SAS Institute Inc., United States). Descriptive statistics were used to summarize continuous variables as cases, means with standard deviations, medians, maximum and minimum. For categorical variables, frequencies and percentages were used. A regression power model, relating log-transformed Cmax and AUC parameters to log-transformed dose, was used to investigate dose proportionality. Food effect pharmacokinetic parameters were analyzed using the mixed effect model with period, sequence and treatment as fixed effects and subjects as the random effect. Logarithmic transformation of Cmax, AUC0-∞ and AUClast were performed to calculate the 90% confidence intervals (CIs) of the geometric mean ratio (GMR) between fasting and fed administration. If the calculated 90% CI values fall entirely within the range of 0.80–1.25, it is indicative of no significant food effect.
Compound,"phosphorylation of ERK1/2, Akt and STAT5 in splenocytes (JAK2 signaling pathway)",counts of three types of blood cells and spleen volume [1],"Cmax, geometric mean (CV%) ([2]; 200 mg fasted)","Tmax, median (min–max) ([2]; 200 mg fasted)","Cmax, geometric mean (CV%) ([2]; 200 mg fed)","Tmax, median (min–max) ([2]; 200 mg fed)","AUC0-t, geometric mean ([2]; fasted (n = 12))","AUC0-∞, geometric mean ([2]; fasted (n = 12))","Cmax, geometric mean ([2]; fasted (n = 12))",median Tmax ([2]; fasted state),"AUC0-t, geometric mean ([2]; fed (n = 12))","AUC0-∞, geometric mean ([2]; fed (n = 12))","Cmax, geometric mean ([2]; fed (n = 12))",median Tmax ([2]; fed state),"AUC0-t, geometric mean ratio ([2]; fed vs fasted)","AUC0-∞, geometric mean ratio ([2]; fed vs fasted)","Cmax, geometric mean ratio ([2]; fed vs fasted)"
"Cl.Cl.O.[2H]C1([2H])COCC([2H])([2H])N1c1ccc(Nc2nccc(-c3ccc(C(=O)NCC#N)cc3)n2)cc1 [ZG0128, Jaktinib Dihydrochloride Monohydrate]",significantly inhibited,significant decrease,,,,,,,,,,,,,,,
Jaktinib,,,237.98 (69.0) ng/ml,2.00 (0.50–5.00) h,542.35 (32.1) ng/ml,4.00 (3.00–5.00) h,1569.48 ng·h/mL,1616.35 ng·h/mL,237.98 ng/mL,2 h,4174.9 ng·h/mL,4207.38 ng·h/mL,542.35 ng/mL,4 h,2.66,2.60,2.28
